Like-named read-outs stand apart in the source and are kept apart here.
Experiments:
Assay type in all cases: cell-based
hGIPR = biological target: T1, hGIPR (Homo sapiens, UniProt P48546); test: Functional cAMP formation (HTRF) in HEK-293 clonal cells expressing hGIPR, 0.1% bovine casein, without or with 1.0% human serum albumin; settings: for EC50: geometric mean, read-out: hGIPR EC50, nM (SEM, n); for Emax: read-out: hGIPR Emax, % ± SEM
T1 construct: expressed in transfected cells
T1 sequence (P48546 22-466): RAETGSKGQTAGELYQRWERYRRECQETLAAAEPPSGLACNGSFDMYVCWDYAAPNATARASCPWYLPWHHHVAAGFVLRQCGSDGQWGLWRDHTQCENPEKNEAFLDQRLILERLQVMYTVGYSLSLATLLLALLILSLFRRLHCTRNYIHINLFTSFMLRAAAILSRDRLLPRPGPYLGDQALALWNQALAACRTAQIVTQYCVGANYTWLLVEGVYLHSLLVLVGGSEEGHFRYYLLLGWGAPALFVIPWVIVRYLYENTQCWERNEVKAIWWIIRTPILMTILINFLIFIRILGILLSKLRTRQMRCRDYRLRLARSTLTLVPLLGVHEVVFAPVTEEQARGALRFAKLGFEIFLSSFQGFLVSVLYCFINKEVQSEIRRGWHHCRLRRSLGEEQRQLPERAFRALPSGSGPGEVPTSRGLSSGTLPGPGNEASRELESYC
Method in brief: (§1)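 Readings of the HTRF 665/620 nm ratio, which falls as cAMP rises, were converted to nM cAMP using a standard curve after 30 min peptide exposure at 37° C.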

hGLP-1R = hGLP-1R (Homo sapiens, UniProt P43220); test: Functional cAMP formation (HTRF) in HEK-293 clonal cells expressing hGLP-1R, 0.1% bovine casein, without or with 1.0% human serum albumin; parameters: expressed in transfected cells; settings: for EC50: geometric mean, read-out: hGLP-1R EC50, nM (SEM, n); for Emax: read-out: hGLP-1R Emax, % ± SEM
Method in brief: as §1

hGCGR = biological target: T2, hGCGR (Homo sapiens, UniProt P47871); test: Functional cAMP formation (HTRF) in HEK-293 clonal cells expressing hGCGR, 0.1% bovine casein, without or with 1.0% human serum albumin; settings: geometric mean, read-out: hGCGR EC50, nM (SEM, n)
T2 construct: expressed in transfected cells
Method in brief: as §1

[1] = 0.1% bovine casein and 1.0% human serum albumin, 37° C.
[2] = HEK293, 0.1% bovine casein and 1.0% human serum albumin, 37° C., percent of maximal response to GIP(1-42)NH2
[3] = HEK293, percent of maximal response to GIP(1-42)NH2, 37° C., 0.1% bovine casein, arithmetic mean
[4] = HEK293, percent of maximal response to GLP-1(7-36)NH2, 37° C., 0.1% bovine casein, arithmetic mean
[5] = cAMP, incubated at 37° C., 0.1% bovine casein (no human serum albumin)
[6] = HEK293, 0.1% bovine casein and 1.0% human serum albumin, 37° C., percent of maximal response to GLP-1(7-36)NH2

Chain of hGLP-1R (P43220 24-463): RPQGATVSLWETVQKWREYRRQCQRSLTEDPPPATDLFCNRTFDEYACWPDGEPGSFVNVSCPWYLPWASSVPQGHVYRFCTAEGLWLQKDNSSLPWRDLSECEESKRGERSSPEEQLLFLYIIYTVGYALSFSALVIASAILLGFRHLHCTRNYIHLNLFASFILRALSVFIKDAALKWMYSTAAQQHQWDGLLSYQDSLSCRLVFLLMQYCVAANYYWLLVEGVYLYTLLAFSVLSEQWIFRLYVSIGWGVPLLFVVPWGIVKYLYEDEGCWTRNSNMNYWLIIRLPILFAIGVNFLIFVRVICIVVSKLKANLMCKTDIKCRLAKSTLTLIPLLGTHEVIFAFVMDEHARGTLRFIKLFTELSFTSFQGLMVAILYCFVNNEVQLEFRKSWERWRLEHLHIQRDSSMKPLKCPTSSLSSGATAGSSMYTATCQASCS
T2 sequence (P47871 26-477): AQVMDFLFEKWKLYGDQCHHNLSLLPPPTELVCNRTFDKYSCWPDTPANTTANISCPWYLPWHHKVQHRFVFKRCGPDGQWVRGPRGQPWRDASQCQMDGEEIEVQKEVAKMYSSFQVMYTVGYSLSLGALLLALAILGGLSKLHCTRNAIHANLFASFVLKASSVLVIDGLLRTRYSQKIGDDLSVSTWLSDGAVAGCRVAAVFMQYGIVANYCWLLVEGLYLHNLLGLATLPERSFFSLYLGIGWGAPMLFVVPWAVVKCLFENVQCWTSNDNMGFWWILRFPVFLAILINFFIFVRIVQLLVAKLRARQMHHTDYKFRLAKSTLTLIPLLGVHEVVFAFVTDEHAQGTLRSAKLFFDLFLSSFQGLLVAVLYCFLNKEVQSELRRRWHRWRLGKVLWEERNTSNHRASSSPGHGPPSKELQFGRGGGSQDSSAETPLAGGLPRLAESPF

SMILES | EC50 (hGIPR; [1]) | Emax (hGIPR; [2]) | Emax (hGIPR; [3]) | EC50 (hGLP-1R; [1]) | Emax (hGLP-1R; [4]) | EC50 (hGCGR; [1]) | EC50 (hGCGR; [5]) | EC50 (hGIPR; [5]) | Emax (hGLP-1R; [6]) | EC50 (hGLP-1R; [5])
CC[C@H](C)[C@H](NC(=O)[C@H](CC(C)C)NC(=O)[C@](C)(Cc1ccc(O)cc1)NC(=O)[C@@H](CCC(=O)O)NC(=O)[C@@H](NC(=O)[C@H](Cc1ccccc1)NC(=O)[C@H](CCC(=O)O)NC(=O)C(C)(C)NC(=O)[C@H](CCC(N)=O)NC(=O)[C@H](C)NC(=O)[C@H](CCCCNC(=O)COCCOCCNC(=O)COCCOCCNC(=O)COCCOCCNC(=O)CC[C@H](NC(=O)CCCCCCCCCCCCC(=O)O)C(=O)O)NC(=O)[C@H](CCCN)NC(=O)[C@H](CC(=O)O)NC(=O)[C@H](CC(C)C)NC(=O)[C@](C)(CC(C)C)NC(=O)[C@@H](NC(=O)[C@H](CO)NC(=O)[C@H](Cc1ccncc1)NC(=O)[C@H](CC(=O)O)NC(=O)[C@H](CO)NC(=O)[C@@H](NC(=O)[C@](C)(Cc1ccccc1F)NC(=O)[C@@H](NC(=O)CNC(=O)[C@H](CCC(=O)O)NC(=O)C(C)(C)NC(=O)[C@@H](N)Cc1ccc(O)cc1)[C@@H](C)O)[C@@H](C)O)[C@@H](C)CC)[C@@H](C)CC)C(=O)N[C@@H](CCC(=O)O)C(=O)NCC(=O)NCC(=O)N1CCC[C@H]1C(=O)N[C@@H](CO)C(=O)N[C@@H](CO)C(=O)NCC(=O)N[C@@H](C)C(=O)N1CCC[C@H]1C(=O)N1CCC[C@H]1C(=O)N1CCC[C@H]1C(=O)N[C@@H](CO)C(=O)N[C@@H](CCCCNC(=O)COCCOCCNC(=O)COCCOCCNC(=O)COCCOCCNC(=O)CC[C@H](NC(=O)CCCCCCCCCCCCC(=O)O)C(=O)O)C(N)=O [Example 225] | 1.81 nM | 67.5% | 105% | 51.6 nM | 92.1% | > 9950 nM | > 9950 nM |  |  | 
CC[C@H](C)[C@H](NC(=O)[C@H](CCCN)NC(=O)[C@H](CC(=O)O)NC(=O)[C@H](CC(C)C)NC(=O)[C@](C)(CC(C)C)NC(=O)[C@@H](NC(=O)[C@H](CO)NC(=O)[C@H](Cc1ccncc1)NC(=O)[C@H](CC(=O)O)NC(=O)[C@H](CO)NC(=O)[C@@H](NC(=O)[C@](C)(Cc1ccccc1F)NC(=O)[C@@H](NC(=O)CNC(=O)[C@H](CCC(=O)O)NC(=O)C(C)(C)NC(=O)[C@@H](N)Cc1ccc(O)cc1)[C@@H](C)O)[C@@H](C)O)[C@@H](C)CC)C(=O)N[C@@H](C)C(=O)N[C@@H](CCC(N)=O)C(=O)NC(C)(C)C(=O)N[C@@H](CCC(=O)O)C(=O)N[C@@H](Cc1ccccc1)C(=O)N[C@H](C(=O)N[C@@H](CCCCNC(=O)COCCOCCNC(=O)COCCOCCNC(=O)COCCOCCNC(=O)CC[C@H](NC(=O)CCCCCCCCCCCCC(=O)O)C(=O)O)C(=O)N[C@@](C)(Cc1ccc(O)cc1)C(=O)N[C@@H](CC(C)C)C(=O)N[C@H](C(=O)N[C@@H](CCCCNC(=O)COCCOCCNC(=O)COCCOCCNC(=O)COCCOCCNC(=O)CC[C@H](NC(=O)CCCCCCCCCCCCC(=O)O)C(=O)O)C(=O)NCC(=O)NCC(=O)N1CCC[C@H]1C(=O)N[C@@H](CO)C(=O)N[C@@H](CO)C(=O)NCC(=O)N[C@@H](C)C(=O)N1CCC[C@H]1C(=O)N1CCC[C@H]1C(=O)N1CCC[C@H]1C(=O)N[C@@H](CO)C(N)=O)[C@@H](C)CC)[C@@H](C)CC [Example 226] |  | 92.1% |  | 11.3 nM |  | > 9950 nM | > 9950 nM | 0.0232 nM | 118% | 
CC[C@H](C)[C@H](NC(=O)[C@H](CCCN)NC(=O)[C@H](CC(=O)O)NC(=O)[C@H](CC(C)C)NC(=O)[C@](C)(CC(C)C)NC(=O)[C@@H](NC(=O)[C@H](CO)NC(=O)[C@H](Cc1ccncc1)NC(=O)[C@H](CC(=O)O)NC(=O)[C@H](CO)NC(=O)[C@@H](NC(=O)[C@](C)(Cc1ccccc1F)NC(=O)[C@@H](NC(=O)CNC(=O)[C@H](CCC(=O)O)NC(=O)C(C)(C)NC(=O)[C@@H](N)Cc1ccc(O)cc1)[C@@H](C)O)[C@@H](C)O)[C@@H](C)CC)C(=O)N[C@@H](C)C(=O)N[C@@H](CCC(N)=O)C(=O)NC(C)(C)C(=O)N[C@@H](CCCCNC(=O)COCCOCCNC(=O)COCCOCCNC(=O)COCCOCCNC(=O)CC[C@H](NC(=O)CCCCCCCCCCCCC(=O)O)C(=O)O)C(=O)N[C@@H](Cc1ccccc1)C(=O)N[C@H](C(=O)N[C@H](CCC(=O)O)C(=O)N[C@@](C)(Cc1ccc(O)cc1)C(=O)N[C@@H](CC(C)C)C(=O)N[C@H](C(=O)N[C@@H](CCCCNC(=O)COCCOCCNC(=O)COCCOCCNC(=O)COCCOCCNC(=O)CC[C@H](NC(=O)CCCCCCCCCCCCC(=O)O)C(=O)O)C(=O)NCC(=O)NCC(=O)N1CCC[C@H]1C(=O)N[C@@H](CO)C(=O)N[C@@H](CO)C(=O)NCC(=O)N[C@@H](C)C(=O)N1CCC[C@H]1C(=O)N1CCC[C@H]1C(=O)N1CCC[C@H]1C(=O)N[C@@H](CO)C(N)=O)[C@@H](C)CC)[C@@H](C)CC [Example 227] |  | 76.1% |  |  | 96.1% | > 9950 nM | > 9950 nM |  | 111% | 1.22 nM
CC[C@H](C)[C@H](NC(=O)[C@H](CCCN)NC(=O)[C@H](CC(=O)O)NC(=O)[C@H](CC(C)C)NC(=O)[C@](C)(CC(C)C)NC(=O)[C@@H](NC(=O)[C@H](CO)NC(=O)[C@H](Cc1ccncc1)NC(=O)[C@H](CC(=O)O)NC(=O)[C@H](CO)NC(=O)[C@@H](NC(=O)[C@](C)(Cc1ccccc1F)NC(=O)[C@@H](NC(=O)CNC(=O)[C@H](CCC(=O)O)NC(=O)C(C)(C)NC(=O)[C@@H](N)Cc1ccc(O)cc1)[C@@H](C)O)[C@@H](C)O)[C@@H](C)CC)C(=O)N[C@@H](C)C(=O)N[C@@H](CCC(N)=O)C(=O)NC(C)(C)C(=O)N[C@@H](CCCCNC(=O)COCCOCCNC(=O)COCCOCCNC(=O)COCCOCCNC(=O)CC[C@H](NC(=O)CCCCCCCCCCCCC(=O)O)C(=O)O)C(=O)N[C@@H](Cc1ccccc1)C(=O)N[C@H](C(=O)N[C@H](CCC(=O)O)C(=O)N[C@@](C)(Cc1ccc(O)cc1)C(=O)N[C@@H](CC(C)C)C(=O)N[C@H](C(=O)N[C@@H](CCC(=O)O)C(=O)NCC(=O)NCC(=O)N1CCC[C@H]1C(=O)N[C@@H](CO)C(=O)N[C@@H](CO)C(=O)NCC(=O)N[C@@H](C)C(=O)N1CCC[C@H]1C(=O)N1CCC[C@H]1C(=O)N1CCC[C@H]1C(=O)N[C@@H](CO)C(=O)N[C@@H](CCCCNC(=O)COCCOCCNC(=O)COCCOCCNC(=O)COCCOCCNC(=O)CC[C@H](NC(=O)CCCCCCCCCCCCC(=O)O)C(=O)O)C(N)=O)[C@@H](C)CC)[C@@H](C)CC [Example 228] |  | 83.3% | 110% |  | 91.1% | > 9950 nM | > 9950 nM | 0.0232 nM | 119% | 1.34 nM

From patent US20230265151A1, “GIP/GLP1 CO-AGONIST COMPOUNDS” (priority 2020, published 2023)
